Tests used:
Type in all cases: cell-based
[1] = tested on: Staphylococcus aureus ATCC #6538; experiment: MIC / synergy index test in 96 well microtiter plates, Gram positive bacteria; conditions: S. aureus ATCC #6538, contact time 24 hrs, 10% tryptic soy broth
Procedure: (§1) Phenoxyethanol and Dipropylene glycol phenyl ether were evaluated for synergy by determining the synergy index (S.I.) of the combination. Synergy index was calculated based on minimum inhibitory concentrations (MIC) of two antimicrobial compounds (A and B) alone and in combinations. The MIC test were run in accordance with the method described in U.S. Pat. No. 9,034,905. The tests organisms were Gram negative bacteria (Pseudomonas aeruginosa ATCC #15442), Gram positive bacteria (Staphylococcus aureus ATCC #6538), and yeast (Candida albicans ATCC #10231) and mold (Aspergillus brasiliensis ATCC #16404). Contact time for the bacteria was 24 and 48 hours, yeast was 48 and 72 hrs, and 3 and 7 days for mold. The test was carried out in 96 well microtiter plates.
(§2) SI is calculated as follows: Ca/CA+Cb/CB=Synergy Index (“SI”) Wherein: • CA=concentration of compound A in ppm, acting alone, which produced an end point (MIC of Compound A). • Ca=concentration of compound A in ppm, in the mixture, which produced an end point. • CB=concentration of compound B in ppm, acting alone, which produced an end point (MIC of Compound B). • Cb=concentration of compound B in ppm, in the mixture, which produced an end point.
(§3) When the sum of Ca/CA and Cb/CB is greater than one, antagonism is indicated.

[2] = tested on: Candida albicans ATCC #10231; experiment: MIC / synergy index test in 96 well microtiter plates, yeast; conditions: C. albicans ATCC #10231, contact time 24 hrs, potato dextrose broth
Procedure: as §1, with “Contact time for the bacteria was 24 and 48 hours, yeast was 48 and 72 hrs, and 3 and 7 days for mold.” left out
as §2, §3

[3] = tested on: Aspergillus brasiliensis ATCC #16404; experiment: MIC / synergy index test in 96 well microtiter plates, mold; conditions: A. brasiliensis ATCC #16404, contact time 3 days, potato dextrose broth
Procedure: as §1, §2, §3

Structure (SMILES) | MIC of compound acting alone (CA / CB) [1] [ppm AI] | MIC of compound acting alone (CA / CB) [2] [ppm AI] | MIC of compound acting alone (CA / CB) [3] [ppm AI]
CC(CO)OCC(C)Oc1ccccc1 (stereo not drawn) [Dipropylene glycol phenyl ether] | 19992 | 19992 | 10000
OCCOc1ccccc1 [Phenoxyethanol, 2-phenoxy-1-ethanol] | 5000 | 5000 | 3000

— US11849726B2, “Microbicidal composition” (Lanxess Corporation, priority 2016, dated 2023)
